The subject of test [1] is Vasopressin V2. The experiment in a line: Vasopressin V2 Antagonist Activity in Conscious Hydrated Rats. The class given is in vivo, rat. The conditions noted are these: AVP 0.4 μg/kg i.p. How it is done:
Vasopressin V2 Antagonist Activity in Conscious Hydrated Rats
Conscious hydrated rats are treated with compounds under study from 0.1 to 100 mg/kg orally or vehicle. Two to four rats are used for each compound. One hour later, arginine vasopressin (AVP, antidiuretic hormore, ADH) dissolved in peanut oil is administered at 0.4 μg/kg intraperitoneally. Two rats in each test would not receive arginine vasopressin but only the vehicle (peanut oil) to serve as water-loading control. Twenty minutes later each rat is given 30 mL/kg of deionized water orally by gavage and is placed individually in a metabolic cage equipped with a funnel and a graduated glass cylinder to collect urine for four hours. Urine volume is measured and osmolality analyzed by use of a Fiske One-Ten osmometer (Fiske Assoc., Norwood, Mass., USA). Urinary sodium, potassium, and chloride are analyzed by use of ion-specific electrodes in a Beckman E3 (Electrolyte 3) Analyzer.

Test [2] relates to Vasopressin V1. Description: Vasopressin V1 Antagonist Activity in Conscious Rats (vasopressin vasopressor response). Further details: Average Change: unit not given here. Conditions: for % Inhibition / Average Change: 10 mg/kg i.v., SHR; for Max. % Inhibition / Time (of max. % inhibition): 30 mg/kg i.v. The class given is in vivo, rat. The essentials:
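Conscious rats are restrained supine, and under local 2% procaine a PE 10/20 cannula is passed through the ventral caudal tail artery into the lower abdominal aorta. The caudal vein is cannulated for intravenous dosing. Blood pressure is recorded with a Statham P23Db transducer, and vasopressin injections are repeated after compound dosing. Percent antagonism is calculated against the pre-drug vasopressor response taken as 100%.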

In test [3] the target is T1, Rat Kidney Medullary V2 Receptors (Rattus norvegicus, UniProt Q00788).
T1 construct: Medullary tissues from rat kidneys are dissected out; from tissue; host or cells: rat kidney medulla membranes
Description: Binding Assay to Rat Kidney Medullary V2 Receptors. Conditions: for IC50: rat kidney medulla membranes, read-out: V2 IC50. The essentials:
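IC50 derived from competition curves; bound tritium counted by liquid scintillation after filtration. Rat medullary kidney membranes (Tris-HCl pH 7.4, BSA, PMSF) were incubated 120 min to equilibrium with radioligand and test compound (added in 50% DMSO). Nonspecific binding: 1.0 μM unlabeled ligand.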

Test [4] concerns the target T2, Rat Hepatic V1 Receptors (Rattus norvegicus, UniProt P30560).
T2 construct: Rat liver plasma membranes expressing the vasopressin V1 receptor subtypes; from tissue; host or cells: rat liver plasma membranes
Description: Binding Assay to Rat Hepatic V1 Receptors. The conditions noted are these: for IC50: rat liver membranes, read-out: V1 IC50.

A word on the % Inhibition: it is the share of the control response that was lost under treatment. What is called IC50 is the concentration that gives 50% inhibition. Broadly, the inhibition is the change of the read-out against control, counted positive when it falls.

T1 sequence (Q00788 whole entry): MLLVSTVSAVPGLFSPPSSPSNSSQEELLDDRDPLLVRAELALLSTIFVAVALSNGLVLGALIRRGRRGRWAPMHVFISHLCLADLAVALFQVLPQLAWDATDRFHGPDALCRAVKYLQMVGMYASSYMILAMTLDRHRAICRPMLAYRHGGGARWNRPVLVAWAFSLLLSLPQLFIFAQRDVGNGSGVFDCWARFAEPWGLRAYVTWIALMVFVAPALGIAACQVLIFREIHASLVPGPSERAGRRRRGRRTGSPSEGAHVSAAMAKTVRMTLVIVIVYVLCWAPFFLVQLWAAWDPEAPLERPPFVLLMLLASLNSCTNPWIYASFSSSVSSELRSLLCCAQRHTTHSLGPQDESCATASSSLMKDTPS
T2 sequence (P30560 whole entry): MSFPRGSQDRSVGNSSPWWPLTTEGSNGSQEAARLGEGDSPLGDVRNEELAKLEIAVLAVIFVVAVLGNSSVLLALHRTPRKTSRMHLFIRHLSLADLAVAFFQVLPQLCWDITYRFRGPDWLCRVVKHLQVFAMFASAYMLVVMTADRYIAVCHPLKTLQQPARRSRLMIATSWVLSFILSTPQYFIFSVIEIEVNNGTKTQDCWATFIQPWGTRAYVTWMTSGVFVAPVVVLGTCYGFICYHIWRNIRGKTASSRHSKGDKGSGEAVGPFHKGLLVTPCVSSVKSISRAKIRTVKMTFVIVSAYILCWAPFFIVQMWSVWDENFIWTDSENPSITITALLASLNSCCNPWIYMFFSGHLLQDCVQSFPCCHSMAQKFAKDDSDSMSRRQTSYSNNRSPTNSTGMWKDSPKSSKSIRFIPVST

Turning to `O=C(Nc1ccc(C(=O)N2Cc3cccn3Cc3ccccc32)cc1)c1cccc(F)c1F` [Example 1], the Osmolality in test [1] (30 mg/kg orally) is on record as 1504 mOsm/kg. The “Urine Volume” value in test [1] (30 mg/kg orally) is on record as 1.1 ml/4 hrs. The “% Inhibition” value in test [2] (VAS 0.01 i.u./kg, 30 min) is 88%; in test [2] (VAS 0.01 i.u./kg, 60 min), 51%; in test [2] (VAS 0.01 i.u./kg, 90 min), 37%; in test [2] (VAS 0.01 i.u./kg, 120 min), 33%; in test [2] (VAS 0.01 i.u./kg, 180 min), 13%; in test [2] (VAS 0.01 i.u./kg, 240 min) it was 19%. The “% Inhibition” value is on record as 4% in test [2] (VAS 0.01 i.u./kg, 300 min); 85% in test [2] (VAS 0.02 i.u./kg, 30 min); 62% in test [2] (VAS 0.02 i.u./kg, 60 min); 49% in test [2] (VAS 0.02 i.u./kg, 90 min); 29% in test [2] (VAS 0.02 i.u./kg, 120 min); 9% in test [2] (VAS 0.02 i.u./kg, 180 min). The “% Inhibition” value in test [2] (VAS 0.02 i.u./kg, 240 min) is recorded as 25%; in test [2] (VAS 0.02 i.u./kg, 300 min) it was 25%. Besides, the “Average Change” value stood at 4 in test [2] (VAS 0.01 i.u./kg, 30 min); 16.5 in test [2] (VAS 0.01 i.u./kg, 60 min); 21 in test [2] (VAS 0.01 i.u./kg, 90 min); 22.5 in test [2] (VAS 0.01 i.u./kg, 120 min); 29 in test [2] (VAS 0.01 i.u./kg, 180 min); 27 in test [2] (VAS 0.01 i.u./kg, 240 min). The “Average Change” value in test [2] (VAS 0.01 i.u./kg, 300 min) turned out to be 32; in test [2] (VAS 0.02 i.u./kg, 30 min), 8; in test [2] (VAS 0.02 i.u./kg, 60 min), 20; in test [2] (VAS 0.02 i.u./kg, 90 min), 27; in test [2] (VAS 0.02 i.u./kg, 120 min), 37.5; in test [2] (VAS 0.02 i.u./kg, 180 min), 48. Also, the “Average Change” value in test [2] (VAS 0.02 i.u./kg, 240 min) amounted to 39.5; in test [2] (VAS 0.02 i.u./kg, 300 min), 39.5. The figures for the half-maximal inhibitory concentration (IC50) in test [3] and in test [4] were 29 nM and 97 nM, respectively.

`O=C(Nc1ccc(C(=O)N2Cc3cccn3Cc3ccccc32)cc1)C1CC=CCC1` (stereo not drawn) [Example 354, N-[4-(5H-Pyrrolo[2,1-c][1,4]benzodiazepin-10(11)-ylcarbonyl)phenyl]-3-cyclohexenecarboxamide]: the Osmolality in test [1] (10 mg/kg orally) is 1010 mOsm/kg. Also, the “Urine Volume” value in test [1] (10 mg/kg orally) worked out at 8.8 ml/4 hrs. Besides, the IC50 was determined as 7 nM in test [3] and 12 nM in test [4].

The molecule `O=C(CC1CCCCC1)Nc1ccc(C(=O)N2Cc3cccn3Cc3ccccc32)cc1` [Example 356, N-[4-(5H-Pyrrolo[2,1-c][1,4]benzodiazepin-10(11)ylcarbonyl)phenyl]-cyclohexylacetamide] yielded an Osmolality in test [1] (10 mg/kg orally) of 1023 mOsm/kg. Also, the “Urine Volume” value in test [1] (10 mg/kg orally) is 5.8 ml/4 hrs. In addition, the values for the IC50 in test [3] and in test [4] were 53 nM and 87 nM, respectively.

For `O=C(Cc1ccccc1F)Nc1ccc(C(=O)N2Cc3cccn3Cc3ccccc32)cc1` [Example 357, N-[4-(5H-Pyrrolo[2,1-c][1,4]benzodiazepin-10(11)ylcarbonyl)phenyl]-2-fluorobenzeneacetamide], the “% Inhibition” value in test [2] (VAS 0.01 i.u./kg, 30 min) amounted to 60%; in test [2] (VAS 0.01 i.u./kg, 60 min) it was 89%; in test [2] (VAS 0.01 i.u./kg, 90 min), 80%; in test [2] (VAS 0.01 i.u./kg, 120 min) it was 80%; in test [2] (VAS 0.01 i.u./kg, 180 min), 77%; in test [2] (VAS 0.01 i.u./kg, 240 min) it was 66%. In addition, the “% Inhibition” value in test [2] (VAS 0.01 i.u./kg, 300 min) was determined as 61%; in test [2] (VAS 0.02 i.u./kg, 30 min), 68%; in test [2] (VAS 0.02 i.u./kg, 60 min), 79%; in test [2] (VAS 0.02 i.u./kg, 90 min), 79%; in test [2] (VAS 0.02 i.u./kg, 120 min), 88%; in test [2] (VAS 0.02 i.u./kg, 180 min), 78%. In addition, the “% Inhibition” value in test [2] (VAS 0.02 i.u./kg, 240 min) turned out to be 71%; in test [2] (VAS 0.02 i.u./kg, 300 min), 68%. Further, the “Average Change” value came to 16.5 in test [2] (VAS 0.01 i.u./kg, 30 min); 4.5 in test [2] (VAS 0.01 i.u./kg, 60 min); 8 in test [2] (VAS 0.01 i.u./kg, 90 min); 8 in test [2] (VAS 0.01 i.u./kg, 120 min); 9.5 in test [2] (VAS 0.01 i.u./kg, 180 min); 14 in test [2] (VAS 0.01 i.u./kg, 240 min). For the same molecule, the “Average Change” value is 16 in test [2] (VAS 0.01 i.u./kg, 300 min); 16 in test [2] (VAS 0.02 i.u./kg, 30 min); 10.5 in test [2] (VAS 0.02 i.u./kg, 60 min); 10.5 in test [2] (VAS 0.02 i.u./kg, 90 min); 6 in test [2] (VAS 0.02 i.u./kg, 120 min); 11 in test [2] (VAS 0.02 i.u./kg, 180 min). Besides, the “Average Change” value in test [2] (VAS 0.02 i.u./kg, 240 min) was found to be 14.5; in test [2] (VAS 0.02 i.u./kg, 300 min), 16. Besides, the values for the IC50 in test [3] and in test [4] were 17 nM and 19 nM, respectively.

Turning to `Cc1ccccc1C(=O)N(C)c1ccc(C(=O)N2Cc3cccn3Cc3ccccc32)cc1` [Example 384, N-[4-(5H-Pyrrolo[2,1-c][1,4]benzodiazepin-10(11H)-ylcarbonyl)phenyl]-N-methyl-2-methylbenzamide], the “% Inhibition” value in test [2] (VAS 0.01 i.u./kg, 30 min) was determined as 62%; in test [2] (VAS 0.01 i.u./kg, 60 min), 62%; in test [2] (VAS 0.01 i.u./kg, 90 min), 49%; in test [2] (VAS 0.01 i.u./kg, 120 min), 55%; in test [2] (VAS 0.01 i.u./kg, 180 min), 53%; in test [2] (VAS 0.01 i.u./kg, 240 min), 53%. The “% Inhibition” value stood at 49% in test [2] (VAS 0.01 i.u./kg, 300 min); 61% in test [2] (VAS 0.02 i.u./kg, 30 min); 72% in test [2] (VAS 0.02 i.u./kg, 60 min); 58% in test [2] (VAS 0.02 i.u./kg, 90 min); 69% in test [2] (VAS 0.02 i.u./kg, 120 min); 64% in test [2] (VAS 0.02 i.u./kg, 180 min). In addition, the “% Inhibition” value turned out to be 59% in test [2] (VAS 0.02 i.u./kg, 240 min) and 54% in test [2] (VAS 0.02 i.u./kg, 300 min). Also, the “Average Change” value in test [2] (VAS 0.01 i.u./kg, 30 min) stood at 9; in test [2] (VAS 0.01 i.u./kg, 60 min), 9; in test [2] (VAS 0.01 i.u./kg, 90 min), 12; in test [2] (VAS 0.01 i.u./kg, 120 min) it was 10.5; in test [2] (VAS 0.01 i.u./kg, 180 min), 11; in test [2] (VAS 0.01 i.u./kg, 240 min), 11. In addition, the “Average Change” value in test [2] (VAS 0.01 i.u./kg, 300 min) amounted to 12; in test [2] (VAS 0.02 i.u./kg, 30 min) it was 14.5; in test [2] (VAS 0.02 i.u./kg, 60 min), 10.5; in test [2] (VAS 0.02 i.u./kg, 90 min), 15.5; in test [2] (VAS 0.02 i.u./kg, 120 min) it was 11.5; in test [2] (VAS 0.02 i.u./kg, 180 min) it was 13.5. In addition, the “Average Change” value is 15 in test [2] (VAS 0.02 i.u./kg, 240 min) and 17 in test [2] (VAS 0.02 i.u./kg, 300 min). For the same molecule, the IC50 in test [3] was determined as 59 nM; in test [4] it was 188 nM.

Regarding `O=C(c1ccc(NS(=O)(=O)c2ccccc2Cl)cc1)N1Cc2cccn2Cc2ccccc21` [Example 488, 10-[4-[[(2-Chlorophenyl)sulfonyl]amino]benzoyl]-10,11-dihydro-5H-pyrrolo[2,1-c][1,4]benzodiazepine], the “Max. % Inhibition” value in test [2] is 43%. Moreover, in test [2], the “Time (of max. % inhibition)” value was found to be 60 min. In addition, the inhibition at 10 µM in test [3] (10 μM, rat) was determined as 87%; in test [4] (2 h, 10 μM, rat), 96%.

Take `O=C(Nc1ccc(C(=O)N2Cc3cccn3Cc3ccccc32)cc1)C1CCCO1` (stereo not drawn) [Example 600, N-[4-(5H-Pyrrolo[2,1-c][1,4]benzodiazepin-10(11H)-ylcarbonyl)phenyl]tetrahydrofurane-2-carboxamide]: in test [2], the “Max. % Inhibition” value is 78% and the “Time (of max. % inhibition)” value came to 60 min. In test [3], the IC50 was determined as 740 nM. Besides, the IC50 in test [4] turned out to be 420 nM.

For the origin of these results see US5624923A, “Tricyclic diazepine vasopressin antagonists and oxytocin antagonists” (priority 1995, dated 1997).
